From paper PMC8672851 (Science translational medicine, 2021)

Key:
[1] = system: patient-derived primary AML cells; test: orthotopic patient-derived xenograft; assay type: in vivo, mouse; settings: PDX; for leukemic disease burden: hCD45+ cells in peripheral blood or bone marrow
[2] = system: primary patient AML blasts; test: colony-forming assay of primary patient AML samples in methylcellulose; assay type: cell-based, human; settings: leukemia cells from patients with AML
MLL-AF9 cells = test: MLL-AF9 syngeneic AML mouse model; assay type: in vivo; settings: for leukemic disease burden: peripheral blood / bone marrow
[3] = system: panel of human cancer cell lines; test: viability across a panel of human cancer cell lines; assay type: cell-based; settings: 131 human cancer cell lines, 16 cancer types; three days
MV4-11-luc cells = settings: MV4-11 xenograft
[4] = assay type: in vivo; settings: mice
[5] = phase I trial; ref NCT02243917; cited from earlier work
MV4-11 cells [6] = test: cellular viability of MV4-11 AML cell line; assay type: cell-based, human
[7] = preclinical pharmacokinetics in multiple species; assay type: in vivo; settings: preclinical studies in multiple species
P-ATM (S1981) = test: ATM phosphorylation upon etoposide DSB induction; assay type: cell-based, human; settings: upon etoposide DSBs induction
[8] = in vivo
human cone PDE6 (PDE6C) = settings: in vitro biochemical assays; relative to CB-5083
γH2AX = test: FACS analysis of intracellular gammaH2AX in AML cells; assay type: cell-based, human
[9] = system: poly-ubiquitinated proteins, GRP78, spliced XBP-1, ATF-4; assay type: cell-based, human
MV4-11 cells [10] = test: combination with doxorubicin in MV4-11 cell line; assay type: cell-based, human; settings: MV4-11 AML cell line
[11] = system: MV4-11 and UT-7 AML cell lines; test: Annexin V/propidium iodide staining and flow cytometry; assay type: cell-based, human; settings: 0.2 μM for 8 days
[12] = cited from earlier work
[13] = system: UT-7 cells expressing VCP (A530T); test: growth inhibition of UT-7 cells expressing NMS-873-resistant VCP; assay type: cell-based, human; settings: four days
GC92-NHEJ-CD4 cells = test: non-homologous end-joining reporter; assay type: cell-based; settings: 0.4 μM; 48 hours post-transfection with I-SceI
RG37-DR-GFP cells = test: homologous recombination reporter; assay type: cell-based; settings: 0.4 μM; 48 hours post-transfection with I-SceI

In the case of `Cc1cc2c(C(N)=O)cccc2n1-c1nc2c(c(NCc3ccccc3)n1)COCC2` [CB-5083], the leukemic disease burden [1] is reported as “substantially decreased disease burden”, the “colony formation of AML blasts” value [2] is reported as “impaired the capacity of AML blasts to form colonies” and the survival (MLL-AF9 cells) is reported as “prolonged mice survival”. The leukemic disease burden (MLL-AF9 cells) was “decreased disease burden”, the “sensitivity of AML cell lines versus other cancer subtypes” value [3] was “more sensitive” and the “disease burden (bioluminescence)” value (MV4-11-luc cells) was “decreased disease burden”. For the same compound, the survival (MV4-11-luc cells) was “prolonged mice survival”, the “tolerability (weight, blood counts)” value [4] was “no major weight loss or hematopoietic toxicity” and the myelosuppression in patients [5] was “not myelosuppressive”.

In the case of `Cc1cc2c(C(N)=O)cccc2n1-c1nc2c(c(NCc3ccccc3)n1)CCCN2` [CB-5339], the IC50 (MV4-11 cells [6]) is reported as 186 nM, the survival ([1]; 90 mg/kg) is reported as “prolonged mice survival” and the leukemic disease burden [1] is reported as “decreased bone marrow leukemic infiltration”. For the same compound, the “bioavailability compared to CB-5083” value [7] was “higher bioavailability”, the “clearance compared to CB-5083” value [7] was “lower clearance” and the “effect on ATM phosphorylation” value (P-ATM (S1981)) was “impaired ATM phosphorylation”. The survival (MLL-AF9 cells) was “prolonged survival”, the leukemic disease burden (MLL-AF9 cells) was “decreased circulating leukemic cells” and the “times lower Cmax in rat retina compared to CB-5083” value [8] was 31 times. The “fold less active on human cone PDE6 (PDE6C) compared to CB-5083” value (human cone PDE6 (PDE6C)) was 15 fold, the “effect on γH2AX accumulation” value (γH2AX; 0.2 μM) was “increased γH2AX accumulation” and the “tolerability (weight, blood counts)” value [4] was “well tolerated”. For the same compound, the “concentration at which ATF-4 accumulated” value ([9]; AML context) was no less than 0.8 µM, the “concentration at which ER stress marker GRP78 accumulated” value ([9]; AML context) was no less than 0.4 µM and the “concentration at which spliced XBP-1 accumulated” value ([9]; AML context) was no less than 1.6 µM. For the same compound, the “concentration inducing polyubiquitin protein accumulation” value ([9]; AML context, dose-dependent) was no less than 0.4 µM and the interaction with doxorubicin (MV4-11 cells [10]) was “synergized with doxorubicin”.

For `Cc1cc(OCc2nnc(SC3CCCC3)n2-c2cccnc2)ccc1-c1ccc(S(C)(=O)=O)cc1` [NMS-873], the “cell death / apoptosis” value [11] is given as “induced Annexin-positive cell death”, the “pharmacological and bioavailability properties” value [12] is given as “lacks appropriate pharmacological and bioavailability properties” and the “colony formation of AML blasts” value [2] is given as “impaired the capacity of AML blasts to form colonies”. The “effect of VCP (A530T) expression on compound-induced loss of viability” value [13] was “rescued the loss of viability”, the “effect on non-homologous end-joining (NHEJ)” value (GC92-NHEJ-CD4 cells) was “did not impair NHEJ” and the “effect on homologous recombination (HR) DSB repair” value (RG37-DR-GFP cells) was “impairment of HR”. The “effect on γH2AX” value (γH2AX; MV4-11 and UT-7, 0.4 μM, 72 hours) was “increased γH2AX” and the “concentration at which poly-ubiquitinated proteins started to accumulate” value ([9]; AML cells) was 5 µM.
